Measurements from US11072619B2, “Pyrazole[1,5-a] pyrimidine derivatives as kinase JAK inhibitors” (CELON PHARMA S.A., priority 2017, dated 2021).

Columns and labels:
[1] = tested on: TF-1 cells; assay: TF-1 cells viability in vitro in the presence of IL-3 (JAK2 activation); type: cell-based; details: Homo sapiens, 5 ng/mL IL-3, 72 hours, ATPlite, read-out: JAK2 IL3 (EC50, inhibition of viability of TF-1 cells)
Experimental: Assay for TF-1 Cells Viability In Vitro
The effects of the activity of the compounds of the invention were tested in vitro using cells viability assay described below.
Tested compounds were dissolved in 100% DMSO, and obtained stock solutions were serially diluted in OptiMEM medium (Reduced Serum Medium-Thermo Fisher Scientific). […] To a well of the 96-well plate 10 μL of the prepared 10× stock solutions of the compounds. Cells on 96-well plates were incubated with the compounds for 72 hours at 37° C., 5% CO2. Subsequently, viability of the cells was measured using ATPlite kit (Perkin Elmer). For this purpose, 50 μL of lysis buffer (mammalian cell lysis solution) were added to a well of the 96-well plate and the plate was incubated for 10 minutes at 25° C. in a plate thermo-shaker with orbital stirring at 600 rpm. Then to a well of the 96-well plate 50 μL of substrate (substrate solution) were added and incubated for 15 minutes at in dark, in a plate thermo-shaker with orbital stirring at 600 rpm. After incubation time, luminescence intensity in a well was measured using Victor×Light luminometer (Perkin Elmer, Inc.).
On the basis of luminescence intensity measurements in well containing tested compounds at various concentrations and in control wells EC50 values were determined. These values were determined with Graph Pad software v. […] Each compound was tested in at least 6 repetitions (6 wells) on two 96-well plates, using at least 3 wells of each control.

[2] = tested on: TNFα secreted by lymphocytes T; assay: Inhibition of TNFα production by lymphocytes T in vitro; type: cell-based; details: Lymphocyte, 48 hours, human CD4+ lymphocytes T; for inhibition at 0.01 µM: 10 nM; for inhibition at 0.1 µM: 100 nM; for inhibition at 1 µM: 1000 nM
Experimental: Assay for Inhibition of TNFα and INFγ Production by Lymphocytes T In Vitro
The activity of the compounds of the invention was tested using in vitro assay described below.
Tested compounds were dissolved in 100% DMSO, and obtained stock solutions were serially diluted with OptiMEM medium (Reduced Serum Medium-Thermo Fisher Scientific). Lymhocytes were isolated from leukocyte top coat layer obtained from human peripheral blood. Isolation of peripheral blood mononuclear cells was performed using Ficoll-Paque+Leucosept gradient method, with lymphocytes isolation using CD4+ T Cell Isolation Kit, and activation using T Cell Activation/Expansion Kit (Miltenyi Biotec). Isolated cells in culture medium (90% RPMI 1640+10% FBS) were sived on 12-well plates at 450 μL/well, 300 thousands/well, and 50 μL of prepared 10× stock solutions of tested compounds were added. After 48 hours supernatant was collected for determination of the level of secreted cytokines. Before determination, cells were centrifuged at 1000 g, 10 min. Determination was performed with flow cytometer FACS Calibur using LEGENDplex Human Th cytokine kit. Results are presented in Table 3 as a percentage of inhibition of TNFα i INFγ cytokines secreted by lymphocytes T with reference to control cells.

[3] = molecular target: Recombinant kinase JAK1 (Homo sapiens (Human), UniProt P23458); assay: In vitro JAK kinase inhibition assay (ADP-Glo), JAK1; type: biochemical; details: 30 μM ATP, peptide IRS-1, averaged
Chain of Recombinant kinase JAK1 (P23458 whole entry): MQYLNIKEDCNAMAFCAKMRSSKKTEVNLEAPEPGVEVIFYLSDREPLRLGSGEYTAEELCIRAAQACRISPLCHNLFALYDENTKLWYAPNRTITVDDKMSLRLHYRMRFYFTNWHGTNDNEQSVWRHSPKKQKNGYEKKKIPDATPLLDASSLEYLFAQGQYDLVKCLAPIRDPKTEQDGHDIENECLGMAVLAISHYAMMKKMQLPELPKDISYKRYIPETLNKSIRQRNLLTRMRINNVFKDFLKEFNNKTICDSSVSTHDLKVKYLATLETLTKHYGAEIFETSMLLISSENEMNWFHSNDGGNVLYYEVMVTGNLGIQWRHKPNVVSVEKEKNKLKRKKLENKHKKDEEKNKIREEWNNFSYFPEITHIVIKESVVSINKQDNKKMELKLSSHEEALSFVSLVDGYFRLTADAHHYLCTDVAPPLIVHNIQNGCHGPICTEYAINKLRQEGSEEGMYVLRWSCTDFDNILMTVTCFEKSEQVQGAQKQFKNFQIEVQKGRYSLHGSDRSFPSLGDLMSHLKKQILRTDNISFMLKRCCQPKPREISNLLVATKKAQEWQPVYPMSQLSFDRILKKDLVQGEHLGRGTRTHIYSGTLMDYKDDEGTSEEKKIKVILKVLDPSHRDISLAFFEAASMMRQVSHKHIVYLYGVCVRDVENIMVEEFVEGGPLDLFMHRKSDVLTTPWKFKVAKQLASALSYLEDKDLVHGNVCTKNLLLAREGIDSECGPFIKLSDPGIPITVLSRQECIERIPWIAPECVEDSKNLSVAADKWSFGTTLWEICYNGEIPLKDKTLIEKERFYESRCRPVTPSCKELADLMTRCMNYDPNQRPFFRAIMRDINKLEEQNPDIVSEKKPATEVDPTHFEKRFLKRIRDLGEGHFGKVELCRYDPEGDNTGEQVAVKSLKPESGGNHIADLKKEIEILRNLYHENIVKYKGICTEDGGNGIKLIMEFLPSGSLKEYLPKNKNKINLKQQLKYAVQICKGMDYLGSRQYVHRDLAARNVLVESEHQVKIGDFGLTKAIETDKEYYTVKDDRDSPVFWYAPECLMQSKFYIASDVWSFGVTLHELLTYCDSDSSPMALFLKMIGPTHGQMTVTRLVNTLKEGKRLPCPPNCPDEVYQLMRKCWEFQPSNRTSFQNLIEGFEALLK
Experimental: In Vitro JAK Kinase Inhibition Assay
The effects of the compounds of the invention were analysed in vitro using kinase JAK inhibition assay described below.
Tested compounds were dissolved in 100% DMSO, and obtained stock solutions were serially diluted in the reaction buffer (50 mM Tris pH 7.5, 10 mM MgCl2, 0.25 mM EGTA, 0.1 mM Na3VO4, 0.01% Triton X-100, 2.5 mM DTT). Recombinant kinases JAK1 (ProQinase), JAK2, or JAK3 (Carna Biosciences) were diluted in the dilution buffer (50 mM Tris-HCl pH 7.5, 150 mM NaCl, 10% glycerol, 0.05% Triton X-100, 1 mM DTT) to the final concentration 3 ng/μL (JAK1), 0.1 ng/μL (JAK2), or 0.2 ng/μL (JAK3). 5 μL of obtained solution of the compounds and 5 μL of the solution of respective kinases were added to the well of a 96-well plate. To initiate interaction between tested compounds and an enzyme, the plate was incubated for 10 minutes at 25° C. in a Plate-Thermo-Shaker with orbital stirring at 400 rpm. Wells of a negative control contained all reagents as mentioned above with the exception of tested compounds and kinase, and wells of a positive controls contained all reagents as mentioned above with the exception of tested compounds. Enzymatic reaction was initiated by the addition of 15 μL of the following solution: 5× concentrated reaction buffer (50 mM Tris pH 7.5, 10 mM MgCl2, 0.25 mM EGTA, 0.1 mM Na3VO4, 0.01% Triton X-100, 2.5 mM DTT), water, 30 μM ATP and for particular kinases: JAK1—60 μM peptide IRS-1 (Enzo), JAK2 or JAK3—10 μM peptide IGF-1Rtide (Lipopharm). Then the plate was incubated for 1 hour at 25° C. in a Plate-Thermo-Shaker, with orbital stirring at 400 rpm. Detection of ADP formed in the enzymatic reaction was then performed using ADP-Glo Kinase Assay kit (Promega). For this purpose, to the well of the 96-well plate 25 μL of ADP-Glo Reagent were added, and the plate was incubated for 40 minutes at 25° C. in a Plate-Thermo-Shaker with orbital stirring at 400 rpm. Then to the well of the 96-well plate 50 μL of Kinase Detection Reagent were added and the plate was incubated for 30 minutes at 25° C. in a Plate-Thermo-Shaker with orbital stirring at 400 rpm. After incubation, luminescence intensity was measured using Victor×Light luminometer (Perkin Elmer, Inc.).
On the basis of luminescence measurement in wells containing tested compounds at various concentrations and in control wells, IC50 values were determined. These values were determined with Graph Pad software v. 5.03, by fitting points of the curve using non-linear regression method. Each compound was tested in at least 6 repetitions (6 wells) on two 96-well plates, using at least 3 wells of each control.
Averaged results of kinases JAK inhibition activity for selected compounds of the present invention are presented below in Table 1.

Row | IC50 [3] | SMILES | IC50 [1] | inhibition at 0.01 µM [2] | inhibition at 0.1 µM [2] | inhibition at 1 µM [2]
1 | 2.67 nM | COc1ccc(-c2cc3ncc(C(N)=O)c(N[C@@H]4CCN(c5ccc(C#N)nn5)CC4(C)C)n3n2)cn1 [Example 4, (R)-7-((1-(6-Cyanopyridazin-3-yl)-3,3-dimethylpiperidin-4-yl)amino)-2-(6-methoxy-pyridin-3-yl)pyrazolo[1,5-a]pyrimidine-6-carboxamide] | 707 nM | 57.1% | 78.7% | 95.3%
2 | 0.75 nM | CC1(C)CN(c2ccc(C#N)nn2)CC[C@H]1Nc1c(C(N)=O)cnc2cc(-c3ccc(N4CCOCC4)nc3)nn12 [Example 7, (R)-7-((1-(6-Cyanopyridazin-3-yl)-3,3-dimethylpiperidin-4-yl)amino)-2-(6-morpholinopyridin-3-yl)pyrazolo[1,5-a]pyrimidine-6-carboxamide] | 283 nM | 60.6% | 76% | 98.5%
3 | 0.05 nM | COc1cccc(-c2cc3ncc(C(N)=O)c(N[C@@H]4CCN(c5ccc(C#N)nn5)CC4(C)C)n3n2)n1 [Example 11, (R)-7-((1-(6-Cyanopyridazin-3-yl)-3,3-dimethylpiperidin-4-yl)amino)-2-(6-methoxy-pyridin-2-yl)pyrazolo[1,5-a]pyrimidine-6-carboxamide] | 451 nM | 57.4% | 88.1% | 88.5%
4 | 0.51 nM | Cc1cc(-c2cc3ncc(C(N)=O)c(N[C@@H]4CCN(c5ccc(C#N)nn5)CC4(C)C)n3n2)ccn1 [Example 12, (R)-7-((1-(6-Cyanopyridazin-3-yl)-3,3-dimethylpiperidin-4-yl)amino)-2-(2-methyl-pyridin-4-yl)pyrazolo[1,5-a]pyrimidine-6-carboxamide] | 361 nM | 76.2% | 75.8% | 95.4%
